# Experimental data taken from US20210315882A1, “METHODS OF TREATING A PATIENT HAVING PARKINSON'S DISEASE” (Sunovion Pharmaceuticals Inc., priority 2019, published 2021).
# Tested on: patients with Parkinson's disease and “OFF” episodes
# Assay: Post hoc analysis of Phase 3 study: motor responses to apomorphine sublingual film compared with levodopa
# Format: in vivo, human
# Text: Patients described in Table 9 were enrolled in a study. At screening, patients attended morning in-office visits in the “OFF” state and received their usual morning dose of levodopa without adjunctive PD medications and were both self- and investigator-assessed for a FULL “ON” response (levodopa challenge; FIG. 9). An “OFF” state was accomplished by withholding levodopa and any other adjunctive PD medications after midnight the night before each morning in-office visit.
smiles,measurement,setting,value
N[C@@H](Cc1ccc(O)c(O)c1)C(=O)O [levodopa],Responder rate (≥30% decrease in MDS-UPDRS III score from predose),15 minutes postdose,18%
same,Responder rate (≥30% decrease in MDS-UPDRS III score from predose),30 minutes postdose,50%
same,time of mean peak response across the time points measured,MDS-UPDRS III score,95 min
same,magnitude of observed peak response in MDS-UPDRS III score (mean±SE),across the time points measured,−27.9±1.20
same,change in MDS-UPDRS III score from predose at 15 minutes postdose (mean±SE),"open-label, film at dose giving FULL “ON”, levodopa usual morning dose, n = 109",−6.0±0.72
